{"source": "ChEMBL document CHEMBL3885861", "about": "“Open TG-GATES”", "organism": "Rattus norvegicus", "assay": "Open TG-GATES - Regimen: Daily Repeat", "type": "toxicity, organism-based, Sprague-Dawley", "design": "regimen Daily Repeat, gender Male, age 6 weeks", "conditions": "in vivo, po, 100 mg/kg, route gavage, dose level Low; for APTT / Bas / Eos / Fbg / Hb / Ht / Lym / MCH / MCHC / MCV / Mono / Neu / PT / Plat / RBC / Ret / WBC: tissue Blood", "key": {"[1]": {"conditions": "72 h, tissue Kidney, time 3 day"}, "[2]": {"conditions": "72 h, tissue Plasma, time 3 day"}}}
{"compound": "C[C@H]1O[C@H](O[C@H]2[C@H](O)[C@@H](O)[C@@H](O[C@H]3[C@H](O)[C@@H](O)C(O)O[C@@H]3CO)O[C@@H]2CO)[C@H](O)[C@@H](O)[C@@H]1N[C@H]1C=C(CO)[C@@H](O)[C@H](O)[C@H]1O", "note": "(stereo partly specified) [ACARBOSE]", "values": [{"measurement": "TERMINAL_BW", "setting": "72 h, time 3 day", "result": 233.2, "unit": "g"}, {"measurement": "APTT", "setting": "72 h, time 3 day", "result": 17.1, "unit": "s"}, {"measurement": "Bas", "setting": "72 h, time 3 day", "result": 0, "unit": "%"}, {"measurement": "Eos", "setting": "72 h, time 3 day", "result": 1, "unit": "%"}, {"measurement": "Fbg", "setting": "72 h, time 3 day", "result": 279.2, "unit": "mg/dL"}, {"measurement": "Hb", "setting": "72 h, time 3 day", "result": 13.2, "unit": "g/dL"}, {"measurement": "Ht", "setting": "72 h, time 3 day", "result": 39.4, "unit": "%"}, {"measurement": "Lym", "setting": "72 h, time 3 day", "result": 79.4, "unit": "%"}, {"measurement": "MCH", "setting": "72 h, time 3 day", "result": 20.4, "unit": "pg"}, {"measurement": "MCHC", "setting": "72 h, time 3 day", "result": 33.5, "unit": "%"}, {"measurement": "MCV", "setting": "72 h, time 3 day", "result": 61, "unit": "fL"}, {"measurement": "Mono", "setting": "72 h, time 3 day", "result": 2.6, "unit": "%"}, {"measurement": "Neu", "setting": "72 h, time 3 day", "result": 15.4, "unit": "%"}, {"measurement": "PT", "setting": "72 h, time 3 day", "result": 13.3, "unit": "s"}, {"measurement": "Plat", "setting": "72 h, time 3 day", "result": 126, "unit": "x10_4/uL"}, {"measurement": "RBC", "setting": "72 h, time 3 day", "result": 646.8, "unit": "x10_4/ul"}, {"measurement": "Ret", "setting": "72 h, time 3 day", "result": 6.7, "unit": "%"}, {"measurement": "WBC", "setting": "72 h, time 3 day", "result": 97.6, "unit": "x10_2/uL"}, {"measurement": "KIDNEY_L", "setting": "[1]", "result": 1, "unit": "g"}, {"measurement": "KIDNEY_R", "setting": "[1]", "result": 1, "unit": "g"}, {"measurement": "KIDNEY_TOTAL", "setting": "[1]", "result": 2.1, "unit": "g"}, {"measurement": "LIVER", "setting": "72 h, tissue Liver, time 3 day", "result": 11.3, "unit": "g"}, {"measurement": "A/G", "setting": "[2]", "result": 0.9}, {"measurement": "ALP", "setting": "[2]", "result": 1544.2, "unit": "IU/L"}, {"measurement": "ALT", "setting": "[2]", "result": 40.2, "unit": "IU/L"}, {"measurement": "AST", "setting": "[2]", "result": 70.2, "unit": "IU/L"}, {"measurement": "BUN", "setting": "[2]", "result": 13.8, "unit": "mg/dL"}, {"measurement": "CRE", "setting": "[2]", "result": 0.2, "unit": "mg/dL"}, {"measurement": "Ca", "setting": "[2]", "result": 10.7, "unit": "mg/dL"}, {"measurement": "Cl", "setting": "[2]", "result": 103.8, "unit": "meq/L"}, {"measurement": "DBIL", "setting": "[2]", "result": 0.01, "unit": "mg/dL"}, {"measurement": "GLC", "setting": "[2]", "result": 182, "unit": "mg/dL"}, {"measurement": "IP", "setting": "[2]", "result": 7.5, "unit": "mg/dL"}, {"measurement": "K", "setting": "[2]", "result": 3.9, "unit": "meq/L"}, {"measurement": "LDH", "setting": "[2]", "result": 84.2, "unit": "IU/L"}, {"measurement": "Na", "setting": "[2]", "result": 140.6, "unit": "meq/L"}, {"measurement": "PL", "setting": "[2]", "result": 142.4, "unit": "mg/dL"}, {"measurement": "RALB", "setting": "[2]", "result": 2.6, "unit": "g/dL"}, {"measurement": "TBIL", "setting": "[2]", "result": 0.056, "unit": "mg/dL"}, {"measurement": "TC", "setting": "[2]", "result": 72.2, "unit": "mg/dL"}, {"measurement": "TG", "setting": "[2]", "result": 101.8, "unit": "mg/dL"}, {"measurement": "TP", "setting": "[2]", "result": 5.6, "unit": "g/dL"}, {"measurement": "gamma-GTP", "setting": "[2]", "result": 1, "unit": "IU/L"}, {"measurement": "TERMINAL_BW", "setting": "[…], time 7 day", "result": 267.4, "unit": "g"}, {"measurement": "TERMINAL_BW", "setting": "[…], time 14 day", "result": 335.4, "unit": "g"}, {"measurement": "TERMINAL_BW", "setting": "[…], time 28 day", "result": 407.8, "unit": "g"}, {"measurement": "APTT", "setting": "[…], time 7 day", "result": 17.6, "unit": "s"}, {"measurement": "Bas", "setting": "[…], time 7 day", "result": 0, "unit": "%"}, {"measurement": "Eos", "setting": "[…], time 7 day", "result": 1, "unit": "%"}, {"measurement": "Fbg", "setting": "[…], time 7 day", "result": 291.8, "unit": "mg/dL"}, {"measurement": "Hb", "setting": "[…], time 7 day", "result": 13.8, "unit": "g/dL"}, {"measurement": "Ht", "setting": "[…], time 7 day", "result": 40.9, "unit": "%"}, {"measurement": "Lym", "setting": "[…], time 7 day", "result": 73.6, "unit": "%"}, {"measurement": "MCH", "setting": "[…], time 7 day", "result": 21.2, "unit": "pg"}, {"measurement": "MCHC", "setting": "[…], time 7 day", "result": 33.6, "unit": "%"}, {"measurement": "MCV", "setting": "[…], time 7 day", "result": 63, "unit": "fL"}, {"measurement": "Mono", "setting": "[…], time 7 day", "result": 3, "unit": "%"}, {"measurement": "Neu", "setting": "[…], time 7 day", "result": 21.6, "unit": "%"}, {"measurement": "PT", "setting": "[…], time 7 day", "result": 12.9, "unit": "s"}, {"measurement": "Plat", "setting": "[…], time 7 day", "result": 130.6, "unit": "x10_4/uL"}, {"measurement": "RBC", "setting": "[…], time 7 day", "result": 649.8, "unit": "x10_4/ul"}, {"measurement": "Ret", "setting": "[…], time 7 day", "result": 6.1, "unit": "%"}, {"measurement": "WBC", "setting": "[…], time 7 day", "result": 81.1, "unit": "x10_2/uL"}, {"measurement": "APTT", "setting": "[…], time 14 day", "result": 17.6, "unit": "s"}, {"measurement": "Bas", "setting": "[…], time 14 day", "result": 0, "unit": "%"}, {"measurement": "Eos", "setting": "[…], time 14 day", "result": 1.4, "unit": "%"}, {"measurement": "Fbg", "setting": "[…], time 14 day", "result": 290.2, "unit": "mg/dL"}, {"measurement": "Hb", "setting": "[…], time 14 day", "result": 14.9, "unit": "g/dL"}, {"measurement": "Ht", "setting": "[…], time 14 day", "result": 44.1, "unit": "%"}, {"measurement": "Lym", "setting": "[…], time 14 day", "result": 80.6, "unit": "%"}, {"measurement": "MCH", "setting": "[…], time 14 day", "result": 20.7, "unit": "pg"}, {"measurement": "MCHC", "setting": "[…], time 14 day", "result": 33.7, "unit": "%"}, {"measurement": "MCV", "setting": "[…], time 14 day", "result": 61.4, "unit": "fL"}, {"measurement": "Mono", "setting": "[…], time 14 day", "result": 2.6, "unit": "%"}, {"measurement": "Neu", "setting": "[…], time 14 day", "result": 15, "unit": "%"}, {"measurement": "PT", "setting": "[…], time 14 day", "result": 13.2, "unit": "s"}, {"measurement": "Plat", "setting": "[…], time 14 day", "result": 126.6, "unit": "x10_4/uL"}, {"measurement": "RBC", "setting": "[…], time 14 day", "result": 719.2, "unit": "x10_4/ul"}, {"measurement": "Ret", "setting": "[…], time 14 day", "result": 4.4, "unit": "%"}, {"measurement": "WBC", "setting": "[…], time 14 day", "result": 98.7, "unit": "x10_2/uL"}, {"measurement": "APTT", "setting": "[…], time 28 day", "result": 18.7, "unit": "s"}, {"measurement": "Bas", "setting": "[…], time 28 day", "result": 0, "unit": "%"}, {"measurement": "Eos", "setting": "[…], time 28 day", "result": 1, "unit": "%"}, {"measurement": "Fbg", "setting": "[…], time 28 day", "result": 301, "unit": "mg/dL"}, {"measurement": "Hb", "setting": "[…], time 28 day", "result": 15.3, "unit": "g/dL"}, {"measurement": "Ht", "setting": "[…], time 28 day", "result": 44, "unit": "%"}]}
